Laboratory results as given in PubChem BioAssay (NCI).
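Test compounds were applied to cells in 96-well plates for 48 hours at 5 doses. Abbreviation: GI50, concentration required for 50% inhibition of growth. TGI: total growth inhibition.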

Assays:
Test in all cases: NCI-60 cell line screen, 48 h
UACC-62 melanoma = test system: UACC-62 melanoma
HOP-92 NSCLC = test system: HOP-92 NSCLC
HCT-15 colon = test system: HCT-15 colon
SK-MEL-28 melanoma = test system: SK-MEL-28 melanoma
OVCAR-4 ovarian = test system: OVCAR-4 ovarian
HOP-62 NSCLC = test system: HOP-62 NSCLC
SNB-75 CNS = test system: SNB-75 CNS
IGROV1 ovarian = test system: IGROV1 ovarian
M14 melanoma = test system: M14 melanoma
SF-268 CNS = test system: SF-268 CNS
HL-60(TB) leukemia = test system: HL-60(TB) leukemia
HS 578T breast = test system: HS 578T breast
HT29 colon = test system: HT29 colon
786-0 renal = test system: 786-0 renal
U251 CNS = test system: U251 CNS
MDA-MB-231 breast = test system: MDA-MB-231 breast
SN12C renal = test system: SN12C renal
MCF7 breast = test system: MCF7 breast
BT-549 breast = test system: BT-549 breast
NCI/ADR-RES ovarian = test system: NCI/ADR-RES ovarian
NCI-H522 lung = test system: NCI-H522 lung
SW-620 colon = test system: SW-620 colon
SR leukemia = test system: SR leukemia
TK-10 renal = test system: TK-10 renal
SNB-19 CNS = test system: SNB-19 CNS
NCI-H226 lung = test system: NCI-H226 lung
A498 renal = test system: A498 renal
SF-295 CNS = test system: SF-295 CNS
CCRF-CEM leukemia = test system: CCRF-CEM leukemia
MOLT-4 leukemia = test system: MOLT-4 leukemia
OVCAR-5 ovarian = test system: OVCAR-5 ovarian
PC-3 prostate = test system: PC-3 prostate
SK-MEL-2 melanoma = test system: SK-MEL-2 melanoma
MALME-3M melanoma = test system: MALME-3M melanoma
SF-539 CNS = test system: SF-539 CNS
HCT-116 colon = test system: HCT-116 colon
CAKI-1 renal = test system: CAKI-1 renal
EKVX NSCLC = test system: EKVX NSCLC
RXF 393 renal = test system: RXF 393 renal
UO-31 renal = test system: UO-31 renal
OVCAR-3 ovarian = test system: OVCAR-3 ovarian
LOX IMVI melanoma = test system: LOX IMVI melanoma
K-562 leukemia = test system: K-562 leukemia
NCI-H460 lung = test system: NCI-H460 lung
OVCAR-8 ovarian = test system: OVCAR-8 ovarian
DU-145 prostate = test system: DU-145 prostate
COLO 205 colon = test system: COLO 205 colon
KM12 colon = test system: KM12 colon
SK-MEL-5 melanoma = test system: SK-MEL-5 melanoma
MDA-MB-435 = test system: MDA-MB-435
ACHN renal = test system: ACHN renal
SK-OV-3 ovarian = test system: SK-OV-3 ovarian
NCI-H23 lung = test system: NCI-H23 lung
UACC-257 melanoma = test system: UACC-257 melanoma
A549 NSCLC = test system: A549 NSCLC
RPMI-8226 leukemia = test system: RPMI-8226 leukemia
T-47D breast = test system: T-47D breast

## NCCNC1=CC(=O)c2nc3ccccc3c3ccnc1c23
UACC-62 melanoma
  GI50: 1.06 µM
  TGI: 3.3 µM
HOP-92 NSCLC
  GI50: 16.4 µM
  TGI: > 43.8 µM
HCT-15 colon
  GI50: 1.4 µM
  TGI: > 49.2 µM
SK-MEL-28 melanoma
  GI50: 4.27 µM
  TGI: > 80.5 µM
OVCAR-4 ovarian
  GI50: 6.47 µM
  TGI: > 47.8 µM
HOP-62 NSCLC
  GI50: 0.362 µM
  TGI: 6.41 µM
SNB-75 CNS
  GI50: 3.98 µM
  TGI: > 29 µM
IGROV1 ovarian
  GI50: 1.58 µM
  TGI: 10.6 µM
M14 melanoma
  GI50: 1.48 µM
  TGI: 4.75 µM
SF-268 CNS
  GI50: 3.63 µM
  TGI: 42.8 µM
HL-60(TB) leukemia
  GI50: 3.78 µM
  TGI: > 35.4 µM
HS 578T breast
  GI50: 2.12 µM
  TGI: > 23.5 µM
HT29 colon
  GI50: 22.6 µM
  TGI: > 73.6 µM
786-0 renal
  GI50: 2.45 µM
  TGI: > 29.2 µM
U251 CNS
  GI50: 2.3 µM
  TGI: 22.7 µM
MDA-MB-231 breast
  GI50: 9.02 µM
  TGI: 41.9 µM
SN12C renal
  GI50: 1.97 µM
  TGI: 14.4 µM
MCF7 breast
  GI50: 4.55 µM
  TGI: > 50.1 µM
BT-549 breast
  GI50: 4.09 µM
  TGI: 20.6 µM
NCI/ADR-RES ovarian
  GI50: 3.13 µM
  TGI: 24.9 µM
NCI-H522 lung
  GI50: 1.53 µM
  TGI: 4.4 µM
SW-620 colon
  GI50: 1.75 µM
  TGI: 15.8 µM
SR leukemia
  GI50: 0.374 µM
TK-10 renal
  GI50: 25.9 µM
  TGI: > 100 µM
SNB-19 CNS
  GI50: 1.79 µM
  TGI: 8.33 µM
NCI-H226 lung
  GI50: 2.08 µM
  TGI: 20.1 µM
A498 renal
  GI50: 9.55 µM
  TGI: > 100 µM
SF-295 CNS
  GI50: 1.73 µM
  TGI: 7.31 µM
CCRF-CEM leukemia
  GI50: 2.53 µM
  TGI: > 50.7 µM
MOLT-4 leukemia
  GI50: 3.39 µM
  TGI: > 36.9 µM
OVCAR-5 ovarian
  GI50: 7.23 µM
  TGI: 40.3 µM
PC-3 prostate
  GI50: 4.09 µM
  TGI: 53.4 µM
SK-MEL-2 melanoma
  GI50: 3.05 µM
  TGI: 29.6 µM
MALME-3M melanoma
  GI50: 2.89 µM
  TGI: 13.4 µM
SF-539 CNS
  GI50: 1.53 µM
  TGI: 4.27 µM
HCT-116 colon
  GI50: 2.3 µM
  TGI: 14.8 µM
CAKI-1 renal
  GI50: 0.534 µM
  TGI: 2.96 µM
EKVX NSCLC
  GI50: 16.7 µM
  TGI: 53.5 µM
RXF 393 renal
  GI50: 3.97 µM
  TGI: 55.7 µM
UO-31 renal
  GI50: 1.51 µM
  TGI: > 20.5 µM
OVCAR-3 ovarian
  GI50: 2.63 µM
  TGI: 11.8 µM
LOX IMVI melanoma
  GI50: 3.46 µM
  TGI: 37.9 µM
K-562 leukemia
  GI50: 1.4 µM
  TGI: > 24.3 µM
NCI-H460 lung
  GI50: 0.732 µM
  TGI: 5.56 µM
OVCAR-8 ovarian
  GI50: 3.83 µM
  TGI: > 100 µM
DU-145 prostate
  GI50: 2.11 µM
  TGI: 29.5 µM
COLO 205 colon
  GI50: 8.72 µM
  TGI: 29 µM
KM12 colon
  GI50: 3.67 µM
  TGI: 38.8 µM
SK-MEL-5 melanoma
  GI50: 1.59 µM
  TGI: 4.19 µM
MDA-MB-435
  GI50: 1.42 µM
  TGI: 7.62 µM
ACHN renal
  GI50: 1.91 µM
  TGI: 19.6 µM
SK-OV-3 ovarian
  GI50: 3.69 µM
  TGI: > 65.2 µM
NCI-H23 lung
  GI50: 1.24 µM
  TGI: 3.9 µM
UACC-257 melanoma
  GI50: 3.34 µM
  TGI: > 36.7 µM
A549 NSCLC
  GI50: 3.26 µM
  TGI: > 100 µM
RPMI-8226 leukemia
  GI50: 2.01 µM
  TGI: > 40.7 µM
T-47D breast
  GI50: 3.75 µM
  TGI: 20.3 µM
